In article PMC12384454, “Study of the Lipophilicity of Tetracyclic Anticancer Azaphenothiazines” (Biomolecules, 2025):
“Also recorded” adds a separate entry of the source. Where two headings read alike, the source gives them in different places.

Columns and labels:
[1] = system: A549 cells; conditions: cited from earlier work; for IC50: MTT assay; for SI A549: selectivity index vs HaCaT
[2] = system: MDA; design: method as in earlier work; conditions: cited from earlier work; for IC50: MTT assay; for SI MDA: selectivity index vs HaCaT
[3] = system: HaCaT cells; conditions: cited from earlier work; for IC50: MTT assay, normal cells; for cytotoxic effects on HaCaT cells: in words
[4] = system: MiaPaCa-2; design: method as in earlier work; conditions: cited from earlier work; for IC50: MTT assay; for SI MiaPaCa-2: selectivity index vs HaCaT
[5] = system: PC3; design: method as in earlier work; conditions: cited from earlier work; for IC50: MTT assay; for SI PC3: selectivity index vs HaCaT
[6] = system: HCT-116 cells; conditions: cited from earlier work; for IC50: MTT assay, read-out: IC50 HCT116; for SI HCT116: selectivity index vs HaCaT
[7] = RP-TLC lipophilicity (RM0, log PTLC, C0), silica gel RP-18F254, acetone/TRIS buffer pH 7.4; type: physicochemical; conditions: for RM0: RP-TLC, RM extrapolated to 0% acetone, TRIS buffer pH 7.4; for log PTLC / chromatographic logP: from RM0 by calibration curve log PTLC = 1.2862RM0 + 0.2061; for C0: chromatography hydrophobic index, C0 = −RM0/b
Procedure: In connection with this, in the next stage of the study, the parameters of lipophilicity of the tested compounds were determined experimentally. […] This technique was used to determine the retardation coefficient Rf for each compound in eight mobile phases consisting of acetone and Tris buffer in different volume ratios (50–85% acetone). Next, the Rf values were converted to the chromatographic parameter RM, and then the obtained values were extrapolated to 0% acetone content in the mobile phase obtaining the lipophilicity parameter RM0 (Table S2).
The parameter RM0 can be correlated to an experimental log P lipophilicity parameter of chemical molecules (log PTLC) by applying a calibration curve. The calibration curve was obtained by determining the Rf value for standard substances with a known log Plit value using the RP-TLC method under conditions analogous to those of the tested substances. After calculating the RM and RM0 values, the dependence of the log Plit parameter on the experimentally obtained RM0 values for standards was determined (Table 2).
The chromatographic parameter of lipophilicity was determined by means of Soczewiński–Wachtmeister’s method. […] The acetone ratio was 50 to 85% (v/v) in increments of 5%. The tested compounds in the form of an ethanol solution at a concentration of 2.0 mg/mL each were spotted on chromatographic plates at an amount of 2 µL each. Before analysis, the chromatography chamber (Camag, Switzerland) was saturated with the mobile phase (50 mL) for 30 min. After development at 20 ± 2 °C and subsequent drying, the chromatograms were observed under UV light at 254 nm by using a Camag UV lamp (Muttenz, Switzerland). Each analysis was performed in triplicate. The average value of the retardation factor (Rf) was used to calculate RM using Equation (1):(1) RM=log(1−Rf/Rf)
In addition, the chromatographic parameter of lipophilicity RM0 and b value allowed the determination of the chromatography hydrophobic index C0 by using the following formula:(3) C0=− RM0/b

[8] = standard for calibration curve; cited from earlier work
[9] = system: standard strains of staphylococci; conditions: cited from earlier work; for antibacterial activity: mainly against standard strains of staphylococci

| Structure (SMILES) | IC50 [1] [µM] | SI A549 [1] | SI A549 ([1]; listed as doxorubicin) | IC50 [2] [µM] | SI MDA [2] | IC50 [3] [µM] | IC50 [4] [µM] | SI MiaPaCa-2 [4] | IC50 [5] [µM] | SI PC3 [5] | IC50 [6] [µM] | SI HCT116 [6] | RM0 [7] | log PTLC [7] | log Plit [8] | C0 [7] | chromatographic logP [7] | antibacterial activity [9] | cytotoxic effects on HaCaT cells [3] | MIC ([9]; standard strains) [µg/mL] |
| --- | --- | --- | --- | --- | --- | --- | --- | --- | --- | --- | --- | --- | --- | --- | --- | --- | --- | --- | --- | --- |
| COc1cccc2c1C(=O)c1c(O)c3c(c(O)c1C2=O)C[C@@](O)(C(=O)CO)C[C@@H]3O[C@H]1C[C@H](N)[C@H](O)[C@H](C)O1 [DX, doxorubicin, reference compound] | 0.6 ± 0.2 | 0.14 | 0.14–0.15 | 0.8 ± 0.1 | 0.15 | 0.3 ± 0.1 | 0.6 ± 0.2 | 0.14 | 0.8 ± 0.1 | 0.15 | 0.59 ± 0.02 | 0.5 |  |  |  |  |  |  |  |  |
| CC(=O)Nc1ccccc1 [acetanilide, reference compound] |  |  |  |  |  |  |  |  |  |  |  |  | 0.78 | 1.21 | 1.21 [35] |  |  |  |  |  |
| c1ccc2cc3ccccc3cc2c1 [anthracene, reference compound] |  |  |  |  |  |  |  |  |  |  |  |  |  |  | 4.45 [36] |  |  |  |  |  |
| O=C(O)c1ccccc1 [benzoic acid, reference compound] |  |  |  |  |  |  |  |  |  |  |  |  | 1.16 |  |  |  |  |  |  |  |
| CCN(CC)CCN1c2cc(Cl)ccc2Sc2cc3ccccc3nc21 [compound 1] | 27.2 ± 8.4 | 3.7 |  | < 100 | 1.0 | < 100 |  |  |  |  |  |  | 3.98 |  |  | 69.58 | 5.33 | moderate antibacterial activity |  |  |
| CN(C)CCCN1c2cc(Cl)ccc2Sc2cc3ccccc3nc21 [compound 2] | 8.2 | 7.6 |  | 52.1 ± 2.7 | 1.2 | 62.3 ± 2.5 | 40.2 ± 0.7 | 1.6 | 52.1 ± 7.1 | 1.2 | 1.6 |  | 3.77 | 5.05 |  | 70.60 |  | moderate antibacterial activity | no cytotoxic effects |  |
| Clc1ccc2c(c1)N(CCN1CCCC1)c1nc3ccccc3cc1S2 [compound 3] | 17.4 ± 4.1 | 5.7 |  | 77.1 ± 1.6 | 1.3 | < 100 | 57.4 ± 9.6 | 1.7 | 77.1 ± 9.4 | 1.3 | 17.5 ± 1.4 | 5.7 | 3.96 |  |  | 73.88 | 5.29 | moderate antibacterial activity |  |  |
| Clc1ccc2c(c1)N(CCN1CCCCC1)c1nc3ccccc3cc1S2 [compound 4] | 63.8 ± 8.5 | 1.6 |  | < 100 | 1.0 | < 100 |  |  |  |  |  |  | 4.01 |  |  | 73.04 | 5.36 |  |  |  |
| CN1CCCCC1CCN1c2cc(Cl)ccc2Sc2cc3ccccc3nc21 (stereo not shown) [compound 5] | 16 ± 4.2 | 1 |  | 16.7 ± 1.1 | 0.9 | 12.7 ± 1.9 | 24.3 ± 3.5 | 0.5 | 16.7 ± 1.8 | 0.7 | 7.7 | 1.6 | 4.20 | 5.61 |  | 84.51 |  |  |  |  |
| O=C1c2ccccc2C(=O)N1CCCN1c2cc(Cl)ccc2Sc2cc3ccccc3nc21 [compound 6] |  |  |  |  |  |  |  |  |  |  |  |  | 4.12 |  |  | 82.90 | 5.5 |  |  |  |
| CC(=O)NCCCN1c2cc(Cl)ccc2Sc2cc3ccccc3nc21 [compound 7] | 24.6 ± 6.1 | 4.1 |  | 76.6 ± 8.9 | 1.3 | < 100 |  |  |  |  |  |  | 2.72 |  |  | 76.19 | 3.7 |  |  |  |
| CCOC(=O)NCCCN1c2cc(Cl)ccc2Sc2cc3ccccc3nc21 [compound 8] | 86.6 ± 0.8 | 1.1 |  | < 100 | 1.0 | < 100 |  |  |  |  |  |  | 3.76 | 5.04 |  | 81.74 |  |  |  |  |
| O=C(NCCCl)NCCCN1c2cc(Cl)ccc2Sc2cc3ccccc3nc21 [compound 9] | 9.3 ± 1.2 | 10.7 |  | 48.6 ± 7.3 | 2.0 | < 100 | 23.2 ± 2.7 | 4.3 | 34.8 ± 9.8 | 2.8 | 10.4 ± 1.6 | 8.8 | 3.47 |  |  | 76.43 | 4.66 | moderate antibacterial activity |  |  |
| CS(=O)(=O)NCCCN1c2cc(Cl)ccc2Sc2cc3ccccc3nc21 [compound 10] |  | 1.0 |  | < 100 | 1.0 | < 100 |  |  |  |  |  |  | 3.37 |  |  | 76.24 | 4.53 |  |  |  |
| Cc1ccc(S(=O)(=O)NCCCN2c3cc(Cl)ccc3Sc3cc4ccccc4nc32)cc1 [compound 11] |  | 1.0 |  | < 100 | 1.0 | < 100 |  |  |  |  |  |  | 4.59 |  |  | 79.96 | 6.1 |  |  |  |
| O=C1c2ccccc2C(=O)N1CCCCN1c2cc(Cl)ccc2Sc2cc3ccccc3nc21 [compound 12] |  |  |  |  |  |  |  |  |  |  |  |  | 4.41 |  |  | 85.47 | 5.88 |  |  |  |
| CC(=O)NCCCCN1c2cc(Cl)ccc2Sc2cc3ccccc3nc21 [compound 13] | 82.3 ± 6.2 | 1.2 |  | < 100 | 1.0 | < 100 |  |  |  |  |  |  | 3.11 |  |  | 77.17 | 4.21 |  |  |  |
| CCOC(=O)NCCCCN1c2cc(Cl)ccc2Sc2cc3ccccc3nc21 [compound 14] |  | 1.0 |  | < 100 | 1.0 | < 100 |  |  |  |  |  |  | 4.06 |  |  | 82.86 | 5.43 |  |  |  |
| O=C(NCCCl)NCCCCN1c2cc(Cl)ccc2Sc2cc3ccccc3nc21 [compound 15] | 6.98 |  |  | 7.4 ± 1.2 | 0.1 | 1.1 ± 0.3 | 6.4 ± 2.4 | 0.2 | 76.6 ± 9.8 | 0.1 | 11.3 ± 2.2 | 0.1 | 3.59 |  |  | 76.22 | 4.82 | moderate antibacterial activity |  | 2 to 8 |
| CS(=O)(=O)NCCCCN1c2cc(Cl)ccc2Sc2cc3ccccc3nc21 [compound 16] | 30.5 ± 8.3 | 3.3 |  | < 100 | 0.2 | < 100 | 98.4 ± 5.6 | 1.0 |  | 1.0 | 0.7 | 143 | 3.65 |  |  | 76.36 | 4.9 |  | no cytotoxic effects; also recorded: lack of toxicity to non-cancer cells |  |
| Cc1ccc(S(=O)(=O)NCCCCN2c3cc(Cl)ccc3Sc3cc4ccccc4nc32)cc1 [compound 17] | 9.45 | 10.5 |  | < 100 | 1.0 | < 100 |  | 1.0 | 48.6 ± 4.7 | 2.0 |  |  | 4.68 |  |  | 80.41 | 6.22 |  |  |  |
| CN(C)CCCN1c2ccccc2Sc2ccc(Cl)cc21 [compound 18, chlorpromazine, reference compound] |  |  |  |  |  |  |  |  |  |  |  |  | 3.41 |  |  | 67.79 | 4.59 |  |  |  |
| Clc1ccc(C(c2ccc(Cl)cc2)C(Cl)(Cl)Cl)cc1 [p,p’-DDT, reference compound] |  |  |  |  |  |  |  |  |  |  |  |  | 4.69 | 6.24 | 6.38 [37] |  |  |  |  |  |
